“Also recorded” adds a separate entry of the source. Like-named read-outs stand apart in the source and are kept apart here.
Tests used:
sucrase [1] = assay: Sucrase inhibition kinetics (Lineweaver–Burk and Dixon plots); type: biochemical, Leuconostoc mesenteroides; conditions: for Ki / Ki’ sucrase (uncompetitive inhibition constant): Dixon plot; for Ki / mode of inhibition toward sucrase: sucrose substrate; for Ki: binding to sucrase, read-out: Ki sucrase (competitive inhibition constant); for mode of inhibition toward sucrase: Lineweaver–Burk / Dixon plots; for Ki’ sucrase (uncompetitive inhibition constant): binding to sucrase–sucrose complex
Experimental: Estimates of sucrase activity were obtained using the method outlined by […] et al. with slight modifications. Sucrose and sucrase derived from Leuconostoc mesenteroides were obtained from Sigma Chemical Co. (St. Louis, MO, USA). […] The mixtures were incubated at 37 °C for 60 min and then at 100 °C for a further 10 min to stop the reaction. The glucose concentrations released from the reaction mixtures were estimated via the glucose oxidase method (glucose assay kit, Sigma Chemical Co., St. Louis, MO, USA) using a VersaMax microplate reader (Molecular Devices Corporation, Sunnyvale, CA, USA) at an absorbance wavelength of 540 nm. […] Kinetics assays were conducted using substrates of various concentrations with and without inhibitors. Maltose was used as a substrate for maltase, where the initial velocity was expressed as the rate of absorbance at 540 nm per min. Sucrose was used as a substrate for sucrase, where the initial velocity was expressed as the rate of absorbance at 540 nm per 18 min. Dixon plot analysis was used to determine the competitive inhibition constant (Ki) and uncompetitive inhibition constant (Ki'). Ki was used as the equilibrium constant for the inhibition of binding to maltase and sucrase, whereas Ki' was used as the equilibrium constant for the inhibition of binding to maltase-maltose and sucrase-sucrose complexes.

α-glucosidase = tested on: α-glucosidase; parameters: method as in doi:10.1016/j.foodres.2014.01.029; conditions: cited from earlier work; for Ki / Ki’ α-glucosidase: previous results
maltase [2] = biological target: T1, maltase (Saccharomyces cerevisiae, UniProt P53341); assay: Maltase inhibition kinetics (Lineweaver–Burk and Dixon plots); type: biochemical; conditions: for Ki’ maltase (uncompetitive inhibition constant): binding to maltase–maltose complex; for mode of inhibition toward maltase: Lineweaver–Burk / Dixon plots
T1 construct: purchased Sigma Chemical Co. (St. Louis, MO, USA)
Experimental: (§1) Maltase activity was characterized using the methods outlined by Adisakwattana et al. with slight modifications. Maltose and maltase derived from Saccharomyces cerevisiae (S. cerevisiae) were obtained from Sigma Chemical Co. (St. Louis, MO, USA). A reaction mixture was formulated from 30 μL of maltose (86.3 mM) with 20 μL of maltase (0.33 units/mL) and 50 μL of phosphate buffer (100 mM, pH 7.0). The mixture was incubated at 37 °C for 10 min and then at 100 °C for a further 10 min to stop the reaction. The glucose concentrations released by the reaction mixture were determined via the glucose oxidase method (glucose assay kit, Sigma Chemical Co., St. Louis, MO, USA) using a VersaMax microplate reader (Molecular Devices Corporation, Sunnyvale, CA, USA) at an absorbance wavelength of 540 nm.
Kinetics assays were conducted using substrates of various concentrations with and without inhibitors. Maltose was used as a substrate for maltase, where the initial velocity was expressed as the rate of absorbance at 540 nm per min. Sucrose was used as a substrate for sucrase, where the initial velocity was expressed as the rate of absorbance at 540 nm per 18 min. Dixon plot analysis was used to determine the competitive inhibition constant (Ki) and uncompetitive inhibition constant (Ki’). Ki was used as the equilibrium constant for the inhibition of binding to maltase and sucrase, whereas Ki’ was used as the equilibrium constant for the inhibition of binding to maltase–maltose and sucrase–sucrose complexes. The Ki and Ki’ values of the maltase inhibitors were derived from Dixon plots in accordance with the methods described by Cornish-Bowden.

maltase [3] = biological target: T1, maltase; assay: Maltase inhibitory activity assay (maltose substrate, glucose oxidase method); type: biochemical; conditions: for inhibition at 10 µM: read-out: maltase inhibition
Experimental: as §1
All of the samples were assessed in terms of maltase inhibitory activity under a range of concentrations (0–30 μM). Maltase inhibitory activity was evaluated by dissolving the samples directly in phosphate buffer solution (100 mM, pH 7.0). Note that each sample was assayed in triplicate. Inhibitory activity was estimated in terms of IC50 values based on percent inhibition, as follows:percent inhibition (%) = [(Awithout sample − Awith sample)] × 100%/Awithout sample(1)

sucrase [4] = assay: Sucrase inhibitory activity assay (sucrose substrate, glucose oxidase method); type: biochemical, Leuconostoc mesenteroides; conditions: for IC50: L. mesenteroides sucrase, sucrose substrate, pH 7.0, 37 °C, mean ± SD; for sucrase inhibition: at a concentration of 20 µM
Experimental: Estimates of sucrase activity were obtained using the method outlined by […] et al. with slight modifications. Sucrose and sucrase derived from Leuconostoc mesenteroides were obtained from Sigma Chemical Co. (St. Louis, MO, USA). […] The mixtures were incubated at 37 °C for 60 min and then at 100 °C for a further 10 min to stop the reaction. The glucose concentrations released from the reaction mixtures were estimated via the glucose oxidase method (glucose assay kit, Sigma Chemical Co., St. Louis, MO, USA) using a VersaMax microplate reader (Molecular Devices Corporation, Sunnyvale, CA, USA) at an absorbance wavelength of 540 nm. […] All samples were assessed in terms of sucrase inhibitory activity under a range of concentrations (0-50 μM).

[5] = parameters: method as in PMID 18756586; conditions: daily consumption for three years, compared to control group not consuming acarbose; cited from earlier work
rat sucrase = biological target: rat sucrase; parameters: method as in PMID 28914528; conditions: cited from earlier work
rat maltase [6] = biological target: rat maltase; parameters: method as in PMID 28914528; conditions: cited from earlier work
sucrose in rats = tested on: sucrose in rats; parameters: method as in PMID 20629879; conditions: read-out: IC50 against sucrose in rats; cited from earlier work
maltase [7] = tested on: maltase; parameters: method as in PMID 19772492; conditions: kinetic analysis; cited from earlier work
sucrase [8] = tested on: sucrase; parameters: method as in PMID 21765605; conditions: kinetics analysis; cited from earlier work
maltase [9] = tested on: maltase; parameters: method as in PMID 32218677; conditions: maltose substrate, cited from earlier work
sucrase [10] = tested on: sucrase; parameters: method as in PMID 19772492; conditions: cited from earlier work
maltase [11] = biological target: maltase; parameters: method as in PMID 15826043; conditions: isolated from Siraitia grosvenori; read-out: IC50 maltase inhibitory activity; cited from earlier work
rat sucrose = tested on: rat sucrose; parameters: method as in doi:10.1016/j.foodchem.2010.03.088; conditions: read-out: IC50 against rat sucrose; cited from earlier work
rat maltase [12] = biological target: rat maltase; parameters: method as in doi:10.1016/j.foodchem.2010.03.088; conditions: read-out: IC50 against rat maltase; cited from earlier work
sucrase [13] = tested on: sucrase; parameters: method as in PMID 15895684; conditions: sucrose substrate, cited from earlier work
[14] = S. cerevisiae maltase, maltose substrate, pH 7.0, 37 °C, mean ± SD, triplicate, read-out: IC50 Maltase

T1 sequence (P53341 whole entry): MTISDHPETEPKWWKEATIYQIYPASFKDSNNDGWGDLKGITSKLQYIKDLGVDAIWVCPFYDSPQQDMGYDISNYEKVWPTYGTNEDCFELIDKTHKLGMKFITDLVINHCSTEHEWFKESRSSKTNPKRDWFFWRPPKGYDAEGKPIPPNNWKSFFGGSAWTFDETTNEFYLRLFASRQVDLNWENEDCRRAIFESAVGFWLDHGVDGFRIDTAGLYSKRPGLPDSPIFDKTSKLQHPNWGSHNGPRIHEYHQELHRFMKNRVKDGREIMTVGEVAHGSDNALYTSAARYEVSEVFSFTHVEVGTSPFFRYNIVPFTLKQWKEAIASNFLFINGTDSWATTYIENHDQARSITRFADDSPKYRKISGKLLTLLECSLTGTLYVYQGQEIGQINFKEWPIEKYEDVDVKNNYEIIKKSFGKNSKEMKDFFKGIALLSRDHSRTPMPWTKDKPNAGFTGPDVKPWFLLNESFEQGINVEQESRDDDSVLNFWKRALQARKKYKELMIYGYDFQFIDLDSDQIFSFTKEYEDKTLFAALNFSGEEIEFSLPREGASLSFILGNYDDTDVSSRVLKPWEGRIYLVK

O=C(OC1Cc2c(O)cc(O)c(C3c4c(O)cc(O)cc4OC(c4ccc(O)c(O)c4)C3O)c2OC1c1ccc(O)c(O)c1)c1cc(O)c(O)c(O)c1 (stereo not drawn) [B2-3’-O-gallate, epicatechin-(4β,8)-epicatechingallate]
Ki (sucrase [1]): 6.05 ± 0.04 µM
mode of inhibition toward sucrase (sucrase [1]): mixed-type inhibition; also recorded: mixed-competitive inhibitors
mode of inhibition of α-glucosidase (α-glucosidase): mixed-competitive inhibitors
Ki (α-glucosidase): 0.3 ± 0.03 µM
Ki’ α-glucosidase (α-glucosidase): 1.42 ± 0.01 µM
Ki (maltase [2]; Dixon plot, maltose substrate, binding to maltase, read-out: Ki maltase (competitive inhibition constant)): 1.99 ± 0.02 µM
Ki’ maltase (uncompetitive inhibition constant) (maltase [2]; Dixon plot): 3.73 ± 0.08 µM
mode of inhibition toward maltase (maltase [2]; maltose substrate): mixed-type inhibition; also recorded: mixed-competitive inhibitors
IC50 (maltase [3]; [14]): 1.73 ± 1.37 µM
inhibition at 10 µM (maltase [3]): 90.7%
IC50 (sucrase [4]): 6.91 ± 3.41 µM
sucrase inhibition (sucrase [4]): 84.6%

Oc1cc(O)c2c(c1)O[C@H](c1ccc(O)c(O)c1)[C@H](O)C2 [EC, epicatechin]
Ki (sucrase [1]): 13.7 ± 0.15 µM
Ki’ sucrase (uncompetitive inhibition constant) (sucrase [1]): 21.36 ± 0.30 µM
mode of inhibition toward sucrase (sucrase [1]): mixed-type inhibition; also recorded: mixed-competitive inhibitors
Ki’ maltase (uncompetitive inhibition constant) (maltase [2]; Dixon plot): 18.88 ± 0.22 µM
mode of inhibition toward maltase (maltase [2]; maltose substrate): mixed-type inhibition; also recorded: mixed-competitive inhibitors
Ki (maltase [2]; read-out: Ki maltase (competitive inhibition constant)): 7.02 ± 0.26 µM
IC50 (maltase [3]; [14]): 6.25 ± 1.84 µM
inhibition at 10 µM (maltase [3]): 66.3%
IC50 (sucrase [4]): 18.9 ± 3.66 µM
sucrase inhibition (sucrase [4]): 51.4%

O=C(O[C@@H]1Cc2c(O)cc(O)cc2O[C@@H]1c1ccc(O)c(O)c1)c1cc(O)c(O)c(O)c1 [ECG, epicatechin gallate]
Ki (sucrase [1]): 8.58 ± 0.08 µM
Ki’ sucrase (uncompetitive inhibition constant) (sucrase [1]): 15.74 ± 0.32 µM
mode of inhibition toward sucrase (sucrase [1]): mixed-type inhibition; also recorded: mixed-competitive inhibitors
mode of inhibition of α-glucosidase (α-glucosidase): mixed-competitive inhibitors
Ki (α-glucosidase): 0.21 ± 0.04 µM
Ki’ α-glucosidase (α-glucosidase): 2.34 ± 0.06 µM
Ki (maltase [2]): 3.14 ± 0.04 µM
Ki’ maltase (uncompetitive inhibition constant) (maltase [2]; Dixon plot): 6.38 ± 0.04 µM
mode of inhibition toward maltase (maltase [2]; maltose substrate): mixed-type inhibition; also recorded: mixed-competitive inhibitors
IC50 (maltase [3]): 3.64 ± 2.99 µM
inhibition at 10 µM (maltase [3]): 87.7%
IC50 (sucrase [4]): 18.3 ± 3.99 µM
sucrase inhibition (sucrase [4]): 56.1%

C[C@H]1O[C@H](O[C@H]2[C@H](O)[C@@H](O)[C@@H](O[C@H]3[C@H](O)[C@@H](O)C(O)O[C@@H]3CO)O[C@@H]2CO)[C@H](O)[C@@H](O)[C@@H]1N[C@H]1C=C(CO)[C@@H](O)[C@H](O)[C@H]1O (stereo partly shown) [acarbose]
reduction of the risk of developing type 2 diabetes [5]: 6%
IC50 (rat sucrase): 12.3 ± 0.6 µM
IC50 (rat maltase [6]): 0.42 ± 0.02 µM

Oc1cc(COCc2cc(O)c(O)c(Br)c2Br)c(Br)c(Br)c1O [bis (2,3-dibromo-4,5-dihydroxybenzyl)ether]
IC50 (sucrose in rats): 1000 ± 30 µM

O=C(O)/C=C/c1ccc(O)c(O)c1 [caffeic acid]
mode of inhibition of maltase (maltase [7]): mixed-inhibition manner

C[C@@H]1O[C@@H](OC[C@H]2O[C@@H](Oc3cc4c(O)cc(O)cc4[o+]c3-c3ccc(O)c(O)c3)[C@H](O)[C@@H](O)[C@@H]2O)[C@H](O)[C@H](O)[C@H]1O [cyanidin-3-rutinoside]
mode of inhibition of sucrase (sucrase [8]): mixed-type manner

O=C(O[C@@H]1Cc2c(O)cc(O)cc2O[C@@H]1c1cc(O)c(O)c(O)c1)c1cc(O)c(O)c(O)c1 [epigallocatechin gallate]
mode of inhibition of maltase (maltase [9]; Lineweaver–Burk plot): competitive inhibitor
Ki (maltase [9]; read-out: Ki maltase calculated from a Dixon plot): 5.93 ± 0.26 µM
IC50 (rat sucrase): 950 ± 86 µM
IC50 (rat maltase [6]): 14 ± 2 µM

COc1cc(/C=C/C(=O)O)ccc1O [ferulic acid]
mode of inhibition of sucrase (sucrase [10]): mixed-type manner
mode of inhibition of maltase (maltase [7]): mixed-inhibition manner

COc1ccc(/C=C/C(=O)O)cc1O [isoferulic acid]
mode of inhibition of sucrase (sucrase [10]): mixed-type manner
mode of inhibition of maltase (maltase [7]): mixed-inhibition manner

C[C@H](CC[C@@H](O[C@@H]1O[C@H](CO[C@@H]2O[C@H](CO)[C@@H](O)[C@H](O)[C@H]2O)[C@@H](O)[C@H](O)[C@H]1O)C(C)(C)O)[C@H]1CC[C@@]2(C)[C@@H]3CC=C4[C@@H](CC[C@H](O[C@@H]5O[C@H](CO)[C@@H](O)[C@H](O)[C@H]5O)C4(C)C)[C@]3(C)[C@H](O)C[C@]12C [mogroside III]
IC50 (maltase [11]): 1600 µM

C[C@H](CC[C@@H](O[C@@H]1O[C@H](CO)[C@@H](O)[C@H](O)[C@H]1O[C@@H]1O[C@H](CO)[C@@H](O)[C@H](O)[C@H]1O)C(C)(C)O)[C@H]1CC[C@@]2(C)[C@H]3CC=C4[C@@H](CC[C@H](O[C@@H]5O[C@H](CO[C@@H]6O[C@H](CO)[C@@H](O)[C@H](O)[C@H]6O)[C@@H](O)[C@H](O)[C@H]5O)C4(C)C)[C@]3(C)[C@H](O)C[C@]12C [mogroside IV]
IC50 (maltase [11]): 12000 µM

O=c1c(O)c(-c2ccc(O)c(O)c2)oc2cc(O)cc(O)c12 [quercetin, reference compound]
Ki (sucrase [1]): 14.05 ± 0.03 µM
mode of inhibition toward sucrase (sucrase [1]): mixed-type inhibition; also recorded: mixed-competitive inhibitors
IC50 (rat sucrose): 3500 ± 300 µM
mode of inhibition of α-glucosidase (α-glucosidase): mixed-competitive inhibitors
IC50 (rat maltase [12]): 4800 ± 400 µM
Ki’ maltase (uncompetitive inhibition constant) (maltase [2]; Dixon plot): 14.97 ± 0.75 µM
mode of inhibition toward maltase (maltase [2]; maltose substrate): mixed-type inhibition; also recorded: mixed-competitive inhibitors
inhibition at 10 µM (maltase [3]): 56.3%
IC50 (sucrase [4]): 19 ± 2.53 µM
sucrase inhibition (sucrase [4]): 51.7%

C[C@H](CC[C@@H](O[C@@H]1O[C@H](CO[C@@H]2O[C@H](CO)[C@@H](O)[C@H](O)[C@H]2O)[C@@H](O)[C@H](O)[C@H]1O[C@@H]1O[C@H](CO)[C@@H](O)[C@H](O)[C@H]1O)C(C)(C)O)[C@H]1CC[C@@]2(C)[C@@H]3CC=C4[C@@H](CC[C@H](O[C@@H]5O[C@H](CO)[C@@H](O)[C@H](O)[C@H]5O)C4(C)C)[C@]3(C)[C@H](O)C[C@]12C [siamenoside I]
IC50 (maltase [11]): 10000 µM

N[C@H]1C=C(CO)[C@@H](O)[C@H](O)[C@H]1O [valienamine]
mode of inhibition of sucrase (sucrase [13]; Lineweaver–Burk plot): competitive inhibitor
Ki (sucrase [13]; read-out: Ki sucrase calculated from a Dixon plot): 0.77 µM

From paper PMC6915683, “Characterization of Maltase and Sucrase Inhibitory Constituents from Rhodiola crenulata” (Foods, 2019)
